pEC50: −log10 of the molar value. Read-outs that look alike come from different tables or passages of the source.
What was measured:
Type in all cases: cell-based
[1] = tested on: cancer cell lines HT-29, LS174T, SW620, SW837, SW1463, and LS411N; assay: Cytotoxicity screen INBRX-109 + onvansertib, summary over the cell lines; settings: combination of INBRX-109 and onvansertib
Procedure: (§1) Monolayer cultures of each cell line were harvested for compound screening as detailed below.
(§2) Onvansertib: A 10 mg stock of onvansertib was purchased from Selleck Chemicals and was resuspended to 10 mM in DMSO. This was then aliquoted and stored at −80° C. Aliquots were thawed immediately prior to dilution and use in the assay. A 500× master plate of serial dilutions (6-point 5-fold dilutions in 100% DMSO starting at 500 μM, plus a DMSO only control) was prepared and mixed gently with a pipette. To generate a 5× working dilution plate of onvansertib, a 1:100 dilution was performed from the 500× plate into complete media (EMEM).
(§3) Also on day 2, test and control articles were added.
(§4) On day 4, viability measurements were taken. […] Data was graphed in GraphPad Prism 9.

[2] = tested on: SW620; assay: Cell viability (CellTiter-Glo) cytotoxicity assay, INBRX-109 x onvansertib matrix, 48 h; settings: for pEC50: Homo sapiens, SW-620, SW620; for Max Cytotox at 200 nM: SW620
Procedure: as §1, §2, §3, §4

[3] = tested on: LS174T; assay: as above; settings: for pEC50: Homo sapiens
Procedure: as §1, §2, §3, §4

[4] = tested on: SW1463; assay: as above; settings: for pEC50: Homo sapiens, SW1463, SW1463; for Max Cytotox at 200 nM: SW1463
Procedure: as §1, §2, §3, §4

[5] = tested on: SW837; assay: as above; settings: for pEC50: Homo sapiens, SW837, SW837; for Max Cytotox at 200 nM: SW837
Procedure: as §1, §2, §3, §4

[6] = tested on: LS411N; assay: as above; settings: for pEC50: Homo sapiens, LS-411N
Procedure: as §1, §2, §3, §4

[7] = tested on: HT-29; assay: as above; settings: for Max Cytotox at 200 nM: HT-29; for pEC50: Homo sapiens, HT-29, HT-29
Procedure: as §1, §2, §3, §4

[8] = tested on: PSN-1; assay: Cytotoxicity assay, pancreatic cell line panel, onvansertib +/- 1 nM INBRX-109; settings: for pEC50: Homo sapiens, PSN1, PSN-1; for Max Cytotox at 600 nM: PSN-1
Procedure: as §1, §3, §4
(§5) The results for a panel of colorectal cancer cell lines are shown in Table 3 and FIGS. 4-6, and the results for a panel of pancreatic cell lines are shown in Table 4 and FIGS. 7 and 8.

[9] = tested on: HuP-T4; assay: as above; settings: for pEC50: Homo sapiens, HuP-T4, HuP-T4; for Max Cytotox at 600 nM: HuP-T4
Procedure: as §1, §3, §4, §5

[10] = tested on: AsPC-1; assay: as above; settings: for Max Cytotox at 600 nM: AsPC-1; for pEC50: Homo sapiens, ASPC1, AsPC-1
Procedure: as §1, §3, §4, §5

[11] = tested on: CFPAC-1; assay: as above; settings: for Max Cytotox at 600 nM: CFPAC-1; for pEC50: Homo sapiens, CFPAC-1, CFPAC-1
Procedure: as §1, §3, §4, §5

[12] = tested on: SW-1990; assay: as above; settings: for pEC50: Homo sapiens, SW1990, SW-1990; for Max Cytotox at 600 nM: SW-1990
Procedure: as §1, §3, §4, §5

[13] = tested on: Panc 10.05; assay: as above; settings: for pEC50: Homo sapiens, Panc1005, Panc 10.05; for Max Cytotox at 600 nM: Panc 10.05
Procedure: as §1, §3, §4, §5

[14] = tested on: Capan-2; assay: as above; settings: for Max Cytotox at 600 nM: Capan-2; for pEC50: Homo sapiens, Capan-2, Capan-2
Procedure: as §1, §3, §4, §5

[15] = tested on: MIA PaCa-2; assay: as above; settings: for pEC50: Homo sapiens, MIA PaCa-2, MIA PaCa-2; for Max Cytotox at 600 nM: MIA PaCa-2
Procedure: as §1, §3, §4, §5

[16] = tested on: Capan-1; assay: as above; settings: for Max Cytotox at 600 nM: Capan-1; for pEC50: Homo sapiens, CAPAN-1, Capan-1
Procedure: as §1, §3, §4, §5

[17] = tested on: PL45; assay: as above; settings: for pEC50: PL45, PL45; for Max Cytotox at 600 nM: PL45
Procedure: as §1, §3, §4, §5

[18] = tested on: KP4; assay: as above; settings: for pEC50: Homo sapiens, KP-4, KP4; for Max Cytotox at 600 nM: KP4
Procedure: as §1, §3, §4, §5

[19] = tested on: HPAF-II; assay: as above; settings: for pEC50: Homo sapiens
Procedure: as §1, §3, §4, §5

[20] = tested on: PANC-1; assay: as above; settings: for pEC50: Homo sapiens, PANC-1, PANC-1; for Max Cytotox at 600 nM: PANC-1
Procedure: as §1, §3, §4, §5

[21] = tested on: BxPC-3; assay: as above; settings: for Max Cytotox at 600 nM: BxPC-3; for pEC50: Homo sapiens, BXPC-3, BxPC-3
Procedure: as §1, §3, §4, §5

[22] = tested on: SU.86.86; assay: as above; settings: for pEC50: Homo sapiens, SU.86.86, SU.86.86; for Max Cytotox at 600 nM: SU.86.86
Procedure: as §1, §3, §4, §5

[23] = tested on: Panc 05.04; assay: as above; settings: for pEC50: Panc 05.04, Panc 05.04; for Max Cytotox at 600 nM: Panc 05.04
Procedure: as §1, §3, §4, §5

[24] = tested on: Panc 03.27; assay: as above; settings: for pEC50: Homo sapiens, PANC-03-27, Panc 03.27; for Max Cytotox at 600 nM: Panc 03.27
Procedure: as §1, §3, §4, §5

CN1CCN(c2ccc(OC(F)(F)F)c(Nc3ncc4c(n3)-c3c(c(C(N)=O)nn3CCO)CC4)c2)CC1 [Onvansertib]
cell killing by the combination [1]: increased cell killing on every cancer cell line tested | pEC50 ([2]; onvansertib + 1 nM INBRX-109): 7.52 | pEC50 ([2]; onvansertib only): 7.50 | Max Cytotox at 200 nM ([2]; onvansertib + 1 nM INBRX-109): 87.53% | Max Cytotox at 200 nM ([2]; onvansertib only): 51.37% | pEC50 ([3]; onvansertib + 1 nM INBRX-109): ~7.26 | pEC50 ([3]; onvansertib only): ~6.71 | Max Cytotox at 200 nM ([3]; onvansertib + 1 nM INBRX-109): 79.32% | Max Cytotox at 200 nM ([3]; onvansertib only): 16.93% | pEC50 ([4]; onvansertib + 1 nM INBRX-109): ~7.42 | pEC50 ([4]; onvansertib only): 6.91 | Max Cytotox at 200 nM ([4]; onvansertib + 1 nM INBRX-109): 74.39% | Max Cytotox at 200 nM ([4]; onvansertib only): 25.79% | pEC50 ([5]; onvansertib + 1 nM INBRX-109): ~7.36 | pEC50 ([5]; onvansertib only): 4.56 | Max Cytotox at 200 nM ([5]; onvansertib + 1 nM INBRX-109): 80.64% | Max Cytotox at 200 nM ([5]; onvansertib only): 27.17% | pEC50 ([6]; onvansertib + 1 nM INBRX-109, read-out: EC50): ~7.99 | pEC50 ([6]; onvansertib only, read-out: EC50): ~2.38 | Max Cytotox at 200 nM ([6]; onvansertib + 1 nM INBRX-109): 84.45% | Max Cytotox at 200 nM ([6]; onvansertib only): 12.35% | Max Cytotox at 200 nM ([7]; onvansertib + 1 nM INBRX-109): 94.63% | Max Cytotox at 200 nM ([7]; onvansertib only): 5.54% | pEC50 ([7]; onvansertib + 1 nM INBRX-109): 7.67 | pEC50 ([7]; onvansertib only): ~8.64 | pEC50 ([8]; onvansertib + 1 nM INBRX-109): 7.20 | pEC50 ([8]; onvansertib only): 7.07 | Max Cytotox at 600 nM ([8]; onvansertib + 1 nM INBRX-109): 98.0% | Max Cytotox at 600 nM ([8]; onvansertib only): 83.2% | pEC50 ([9]; onvansertib + 1 nM INBRX-109): 7.45 | pEC50 ([9]; onvansertib only): 6.86 | Max Cytotox at 600 nM ([9]; onvansertib + 1 nM INBRX-109): 85.3% | Max Cytotox at 600 nM ([9]; onvansertib only): 33.7% | Max Cytotox at 600 nM ([10]; onvansertib + 1 nM INBRX-109): 60.0% | Max Cytotox at 600 nM ([10]; onvansertib only): 19.9% | pEC50 ([10]; onvansertib + 1 nM INBRX-109): 6.64 | pEC50 ([10]; onvansertib only): 6.35 | Max Cytotox at 600 nM ([11]; onvansertib + 1 nM INBRX-109): 86.4% | Max Cytotox at 600 nM ([11]; onvansertib only): 45.3% | pEC50 ([11]; onvansertib + 1 nM INBRX-109): 6.81 | pEC50 ([11]; onvansertib only): 6.87 | pEC50 ([12]; onvansertib + 1 nM INBRX-109): 6.22 | pEC50 ([12]; onvansertib only): 6.16 | Max Cytotox at 600 nM ([12]; onvansertib + 1 nM INBRX-109): 68.7% | Max Cytotox at 600 nM ([12]; onvansertib only): 13.4% | pEC50 ([13]; onvansertib + 1 nM INBRX-109): 7.09 | pEC50 ([13]; onvansertib only): 7.09 | Max Cytotox at 600 nM ([13]; onvansertib + 1 nM INBRX-109): 83.3% | Max Cytotox at 600 nM ([13]; onvansertib only): 47.2% | Max Cytotox at 600 nM ([14]; onvansertib + 1 nM INBRX-109): 46.2% | Max Cytotox at 600 nM ([14]; onvansertib only): 3.9% | pEC50 ([14]; onvansertib + 1 nM INBRX-109): 6.87 | pEC50 ([14]; onvansertib only): 6.82 | pEC50 ([15]; onvansertib + 1 nM INBRX-109): 7.09 | pEC50 ([15]; onvansertib only): 6.75 | Max Cytotox at 600 nM ([15]; onvansertib + 1 nM INBRX-109): 96.4% | Max Cytotox at 600 nM ([15]; onvansertib only): 67.0% | Max Cytotox at 600 nM ([16]; onvansertib + 1 nM INBRX-109): 94.3% | Max Cytotox at 600 nM ([16]; onvansertib only): 27.8% | pEC50 ([16]; onvansertib + 1 nM INBRX-109): 7.10 | pEC50 ([16]; onvansertib only): 6.73 | pEC50 ([17]; onvansertib + 1 nM INBRX-109): 7.17 | pEC50 ([17]; onvansertib only): 7.08 | Max Cytotox at 600 nM ([17]; onvansertib + 1 nM INBRX-109): 82.2% | Max Cytotox at 600 nM ([17]; onvansertib only): 56.5% | pEC50 ([18]; onvansertib + 1 nM INBRX-109): 7.08 | pEC50 ([18]; onvansertib only): 6.98 | Max Cytotox at 600 nM ([18]; onvansertib + 1 nM INBRX-109): 97.8% | Max Cytotox at 600 nM ([18]; onvansertib only): 74.7% | pEC50 ([19]; onvansertib + 1 nM INBRX-109): 7.28 | pEC50 ([19]; onvansertib only): 7.20 | Max Cytotox at 600 nM ([19]; onvansertib + 1 nM INBRX-109): 68.2% | Max Cytotox at 600 nM ([19]; onvansertib only): 27.2% | pEC50 ([20]; onvansertib + 1 nM INBRX-109): 6.92 | pEC50 ([20]; onvansertib only): 6.82 | Max Cytotox at 600 nM ([20]; onvansertib + 1 nM INBRX-109): 87.2% | Max Cytotox at 600 nM ([20]; onvansertib only): 36.2% | Max Cytotox at 600 nM ([21]; onvansertib + 1 nM INBRX-109): 91.8% | Max Cytotox at 600 nM ([21]; onvansertib only): 70.1% | pEC50 ([21]; onvansertib + 1 nM INBRX-109): 6.92 | pEC50 ([21]; onvansertib only): 6.86 | pEC50 ([22]; onvansertib + 1 nM INBRX-109): 7.04 | pEC50 ([22]; onvansertib only): 6.20 | Max Cytotox at 600 nM ([22]; onvansertib + 1 nM INBRX-109): 98.9% | Max Cytotox at 600 nM ([22]; onvansertib only): 30.5% | pEC50 ([23]; onvansertib + 1 nM INBRX-109): 7.21 | pEC50 ([23]; onvansertib only): 6.69 | Max Cytotox at 600 nM ([23]; onvansertib + 1 nM INBRX-109): 97.4% | Max Cytotox at 600 nM ([23]; onvansertib only): 44.4% | pEC50 ([24]; onvansertib + 1 nM INBRX-109): 7.05 | pEC50 ([24]; onvansertib only): 6.92 | Max Cytotox at 600 nM ([24]; onvansertib + 1 nM INBRX-109): 87.5% | Max Cytotox at 600 nM ([24]; onvansertib only): 36.7%
